Test results from patent US11180771B2 (priority 2016, dated 2021).

Experiments:
[1] = tested on: weeds (all species): Echinochloa species, Schoenoplectus mucronatus, Cypres difformis, Heteranthera limosa, Monochoria vaginalis; test: Drill-seeded herbicide treatment test (Table 6), percent weeds; type: in vivo; details: including combinations with Prowl and Clincher, lines with mutant ROXY allele
Experimental: Oxyfluorfen resistant rice lines containing mutant allele ROXY, including 17Y3000, 14G3, 14G4, and 15G4, and the oxyfluorfen susceptible parent M-206 without ROXY were tested by applying oxyfluorfen at different rates and times, and in combination with other herbicides in a drill-seeded production system and evaluated for percent weeds and yield as shown in Table 6. Preflush applications were made directly after drill-seeding just before the first irrigation of the basin and preflood applications occurred just before a permanent flood of basin at about 25 days after seeding. The design was a randomized complete block with 2 replication and treatments of oxyfluorfen (GoalTender®) and combinations of oxyfluorfen with the herbicides Prowl® and Clincher®. The active ingredient of Prowl® is pendimethalin (N-(1-ethylpropyl)-3,4-dimethyl-2,6-dinitrobenzenamine). Clincher® is an herbicide for selective postemergence grass weed control in rice with the active ingredient cyhalofop (2-[4-(4-cyano-2-fluorophenoxy) phenoxy] propanoic acid, butyl ester, (R)). The plot size was 6.4×20 ft. The percent weeds (all species) were visually determined at 50 days after seeding in the plots and the plots were harvested at maturity. […]

[2] = tested on: weeds (all species): Echinochloa species, Schoenoplectus mucronatus, Cypres difformis, Heteranthera limosa, Monochoria vaginalis; test: Preflood oxyfluorfen rate test in water-seeded production system (Table 5), percent weeds; type: in vivo; details: treatments before flooding; mutant lines containing ROXY
Experimental: Oxyfluorfen resistant rice lines containing mutant allele ROXY, including 17Y3000, 14G3, 14G4, and 15G4, and the oxyfluorfen susceptible parent M-206 were tested at different rates of oxyfluorfen applied preflood in a water-seeded production system to assess seedling vigor, percent weeds, and yield as shown in Table 5. The design was a randomized complete block with 4 replication and 4 rates of oxyfluorfen (GoalTender®) herbicide. The plot size was 10×20 ft. The percent weeds (all species) were visually determined at 50 days after seeding in the plots and the plots were harvested at maturity. The weed species included a mixture of predominant weeds present including barnyard and late watergrass Echinochloa species, rice field bulrush Schoenoplectus mucronatus, small flower umbrella Cypres difformis, ducksalad Heteranthera limosa, and monochoria Monochoria vaginalis.

## CCOc1cc(Oc2ccc(C(F)(F)F)cc2Cl)ccc1[N+](=O)[O-] [Oxyfluorfen, oxyfluorfen]
[1]
  weed control: high levels of weed control
[2]
  weed control: high levels of weed control
